Tests used:
[1] = In vitro cytotoxicity against MCF7 cells; assay type: cell-based; conditions: human, MCF7 breast cancer cells; 4 μg/mL; read-out: Cytotoxicity (% survival rate), MCF7
Experimental: (§1) These benzo[f]indole-4,9-dione derivatives were evaluated in vitro against a panel of cell lines consisting of MCF7 (breast), NCI-H460 (lung), and SF-268 (CNS) as described previously. […] Results from Table 2 indicated compounds 15 and 16 were cytotoxic and their IC50 against three cancer cells and a normal cell, Detroit 551, were shown in Table 3.

MCF7 (breast) = test: In vitro cytotoxicity against MCF7 cells; assay type: cell-based; conditions: Homo sapiens, MCF7; mean ± standard deviation, three experiments
Experimental: as §1

[2] = In vitro cytotoxicity against NCI-H460 cells; assay type: cell-based; conditions: human, NCI-H460 lung cancer cells; 4 μg/mL; read-out: Cytotoxicity (% survival rate), NCI-H460
Experimental: as §1

NCI-H460 (lung) = test: In vitro cytotoxicity against NCI-H460 cells; assay type: cell-based; conditions: Homo sapiens, NCI-H460; mean ± standard deviation, three experiments
Experimental: as §1

[3] = In vitro cytotoxicity against SF-268 cells; assay type: cell-based; conditions: human, SF-268 CNS cancer cells; 4 μg/mL; read-out: Cytotoxicity (% survival rate), SF-268
Experimental: as §1

SF-268 (CNS) = test: In vitro cytotoxicity against SF-268 cells; assay type: cell-based; conditions: Homo sapiens, SF-268; mean ± standard deviation, three experiments
Experimental: as §1

Detroit 551 = test: In vitro cytotoxicity against normal cell Detroit 551; assay type: cell-based; conditions: Homo sapiens, mean ± standard deviation, three experiments
Experimental: as §1

[4] = tested on: fMLF-activated human neutrophils; test: Superoxide anion generation in fMLF-activated human neutrophils (ferricytochrome c reduction); assay type: cell-based; conditions: Neutrophil, mean ± SEM (n = 3), read-out: Superoxide Anion (IC50, concentration necessary for 50% inhibition)
Experimental: (§2) Blood was taken from healthy human donors (20–30 years old) by venipuncture, using a protocol approved by the institutional review board at Chang Gung Memorial Hospital. Neutrophils were isolated with a standard method of dextran sedimentation prior to centrifugation in a Ficoll Hypaque gradient and hypotonic lysis of erythrocytes.
(§3) Superoxide generation and elastase release were carried out according to the procedures described previously. Neutrophils (6 × 10^5/mL) were equilibrated at 37 °C for 2 min and incubated with compounds for 5 min. Neutrophils were then activated by fMLF (100 nM) in the pretreatment of cytochalasin B (1 μg/mL for superoxide generation and 0.5 μg/mL for elastase release) for 10 min. Superoxide anion production was assayed by monitoring the superoxide dismutase-inhibitable reduction of ferricytochrome c. Elastase release was performed using MeO-Suc-Ala-Ala-Pro-Valp-nitroanilide as the elastase substrate.

[5] = tested on: fMLF-activated human neutrophils; test: Neutrophil elastase release in fMLF-activated human neutrophils; assay type: cell-based; conditions: for IC50: Homo sapiens, Neutrophil, fMLF-activated human neutrophils, mean ± SEM (n = 3), read-out: Elastase Release (IC50, concentration necessary for 50% inhibition)
Experimental: as §2, §3

alveolar macrophages [6] = tested on: alveolar macrophages; design: method as in PMID 10188987; conditions: cited from earlier work
alveolar macrophages [7] = tested on: alveolar macrophages; design: method as in PMID 10188987; conditions: cited from earlier work; remark: listed apart in the source
[8] = tested on: LPS-induced Raw 264.7 cells; design: method as in PMID 23232148; conditions: cited from earlier work
[9] = tested on: LPS-induced Raw 264.7 cells; design: method as in PMID 23232148; conditions: cited from earlier work; remark: listed apart in the source
human neutrophils = test: Cytotoxicity in human neutrophils by lactate dehydrogenase (LDH) release; assay type: cell-based
Description: The action mechanisms of 10 in human neutrophils were further investigated. Human neutrophil activations, such as respiratory burst and degranulation, are regulated by Akt and calcium signal pathways. Therefore, calcuim and Akt are considered as therapeutic target for developing anti-inflammatory agents.
as §2

Src (Src family Y416) = test: Western analysis of fMLF-induced Src phosphorylation in human neutrophils; assay type: cell-based; conditions: fMLF-activated human neutrophils; Figure 2A
Experimental: as §2
(§4) Neutrophils were pretreated with compounds for 5 min before being stimulated with fMLF at 37 °C. The reaction was stopped by adding 5 × Laemmli’s sample buffer. Proteins derived from whole-cell lysates were separated by SDS-polyacrylamide gel electrophoresis (PAGE) using polyacrylamide gels and blotted onto nitrocellulose membranes. Immunoblotting was performed using the indicated antibodies and horseradish peroxidase (HRP)-conjugated secondary anti-rabbit antibodies (Cell Signaling Technology, Beverly, MA, USA). The immunoreactive bands were visualized by an enhanced chemiluminescence system (Amersham Biosciences, Bucks, UK) and detected by Ultraviolet Product (UVP) imaging system (Upland, CA, USA).

Akt (S473) = test: Western analysis of fMLF-induced Akt phosphorylation in human neutrophils; assay type: cell-based; conditions: fMLF-activated human neutrophils; Figure 2B
Experimental: as §2, §4

[Ca^2+]i = fMLF-induced intracellular calcium mobilization in human neutrophils (fluo-3 AM); assay type: cell-based; conditions: Figure 3
Experimental: as §2
Neutrophils were loaded with fluo-3 AM (2 μM) at 37 °C for 45 min. Cells were preincubated with compounds for 5 min, and then activated by fMLF (100 nM). The change in fluorescence was monitored using a Hitachi F-4500 spectrofluorometer (Tokyo, Japan). The excitation wavelength was 488 nm, and the emission wavelength was 520 nm.

[10] = tested on: LPS-induced PGE2 production; design: method as in PMID 22161217; conditions: read-out: Inhibition of LPS-induced PGE2 production, IC50; cited from earlier work
[11] = tested on: superoxide anion generation; design: method as in PMID 22510297; conditions: cited from earlier work
K562 cell = tested on: K562 cell; design: method as in PMID 20591678; conditions: read-out: IC50 against the growth of K562 cell; cited from earlier work

| Compound | IC50 [4] | IC50 [5] | melting point | viability at 4 μg/mL [1] | viability at 4 μg/mL [2] | viability at 4 μg/mL [3] | other results |
| --- | --- | --- | --- | --- | --- | --- | --- |
| CC[C@@]1(O)C(=O)OCc2c1cc1n(c2=O)Cc2cc3ccccc3nc2-1 [CPT, camptothecin, reference compound] |  |  |  | 33% | 1% | 25% | IC50 (MCF7 (breast)): 0.57 ± 0.03 µM; IC50 (NCI-H460 (lung)): 0.03 ± 0.003 µM; IC50 (SF-268 (CNS)): 0.19 ± 0.006 µM; IC50 (Detroit 551): 0.99 ± 0.09 µM |
| Cc1cc2c(n1Cc1ccccc1)C(=O)c1ccccc1C2=NO [Compound 11, 1-Benzyl-4-(hydroxyimino)-2-methyl-1H-benzo[f]indol-9(4H)-one] | 7.47 ± 1.39 µM | > 30 µM | 259 to 260 °C | 104% | 110% | 102% |  |
| CC1(C)CCC2=C(O1)c1ccccc1C(=O)C2=O [β-LAPA, β-lapachone] |  |  |  |  |  |  | Inhibition of expression of nitric oxide (NO) (alveolar macrophages [6]): able to inhibit; Inhibition of expression of PGE2 (alveolar macrophages [7]): able to inhibit |
| Cc1cc2c(n1Cc1ccccc1)C(=O)c1ccccc1C2=O [Compound 9, 1-Benzyl-2-methyl-1H-benzo[f]indole-4,9-dione] | 14 ± 4.4 µM | > 30 µM | 139 to 140 °C | 105% | 104% | 106% |  |
| O=C1c2ccccc2C(=O)c2c1ccn2Cc1ccccc1 [Compound 8, 1-Benzyl-1H-benzo[f]indole-4,9-dione] | 16.1 ± 1.87 µM | > 30 µM | 173 to 174 °C | 99% | 96% | 103% |  |
| COc1ccc(OC2=CC(=O)C(=O)c3ccccc32)cc1 [Compound 4, 4-(4-methoxyphenoxy)naphthalene-1,2-dione] |  |  |  |  |  |  | Inhibition of NO released [8]: able to inhibit; Inhibition of TNF-α released [9]: able to inhibit |
| O=C1c2ccccc2/C(=N/O)c2ccn(Cc3ccccc3)c21 [Compound 10, (Z)-1-Benzyl-4-(hydroxyimino)-1H-benzo[f]indol-9(4H)-one] | 2.74 µM | 2.78 µM | 202 to 203 °C | 110% | 110% | 106% | Cytotoxicity in human neutrophils (LDH release) (human neutrophils; 30 μM, data not shown): showed no cytotoxicity effects; fMLF-induced phosphorylation of Src (Src family Y416) (Src (Src family Y416)): did not alter; fMLF-induced phosphorylation of Akt (S473) (Akt (S473)): inhibited; fMLF-induced mobilization of [Ca^2+]i ([Ca^2+]i): inhibited |
| COc1ccc(-c2nc3c4ccccc4c4occc4c3[nH]2)cc1 [Compound 2, 2-(4-methoxyphenyl)furo[3',2':3,4]naphtho[1,2-d]imidazole] |  |  |  |  |  |  | IC50 [10]: 0.047 µM |
| benzo[a]furo[2,3-c]phenazinecarboxylic acid [Compound 3] |  |  |  |  |  |  | Inhibition of superoxide anion generation [11]: strongly inhibited superoxide anion generation |
| O=C1c2ccccc2/C(=N/O)c2ccoc21 [Compound 5, (Z)-4-(hydroxyimino)naphtho[2,3-b]furan-9(4H)-one] |  |  |  |  |  |  | IC50 (K562 cell): 0.82 µM |

Now from value to compound, other results behind:

| IC50 [4] | IC50 [5] | melting point | Compound | viability at 4 μg/mL [1] | viability at 4 μg/mL [2] | viability at 4 μg/mL [3] | other results |
| --- | --- | --- | --- | --- | --- | --- | --- |
| > 30 µM | > 30 µM | 168 to 169 °C | CON=C(C)c1c2c(n(Cc3ccccc3)c1C)C(=O)c1ccccc1C2=O [Compound 14, 1-Benzyl-3-[1-(methoxyimino)ethyl]-2-methyl-1H-benzo[f]indole-4,9-dione] | 104% | 108% | 112% |  |
| > 30 µM | > 30 µM | 135 to 136 °C | CC(=O)c1c2c(n(Cc3ccccc3)c1C)C(=O)c1ccccc1C2=O [Compound 12, 3-Acetyl-1-benzyl-2-methyl-1H-benzo[f]indole-4,9-dione] | 78% | 88% | 115% |  |
| 1.36 ± 0.33 µM | 2.21 ± 0.45 µM |  | O=c1cc(N2CCOCC2)oc2c(-c3ccccc3)cccc12 [LY294002, reference compound] |  |  |  |  |
| 10.5 ± 0.52 µM | 14.7 ± 2.44 µM | 204 to 205 °C | CC(=NO)c1c2c(n(Cc3ccccc3)c1C)C(=O)c1ccccc1C2=O [Compound 13, 1-Benzyl-3-[1-(hydroxyimino)ethyl]-2-methyl-1H-benzo[f]indole-4,9-dione] | 106% | 111% | 109% |  |
| 0.52 ± 0.11 µM |  | 138 to 139 °C | CCN(CC)CCNC(=O)c1ccc(/N=C2/c3ccccc3C(=O)c3c2cc(C)n3Cc2ccccc2)cc1 [Compound 16, (Z)-4-(1-benzyl-2-methyl-9-oxo-1H-benzo[f]indol-4(9H)-ylideneamino)-N-[2-(diethylamino)ethyl]benzamide] | 57% | 18% | 106% | Effect of compound alone on elastase release ([5]; human neutrophils, table dash with footnote b = alone induced elastase release): induced NE release of human neutrophils; IC50 (MCF7 (breast)): 4.95 ± 0.21 µM; IC50 (NCI-H460 (lung)): 3.23 ± 0.34 µM; IC50 (SF-268 (CNS)): 25.8 ± 1.66 µM; IC50 (Detroit 551): 4.78 ± 0.57 µM |
|  |  | 152 to 153 °C | CCN(CC)CCNC(=O)c1ccc(/N=C2/c3ccccc3C(=O)c3c2ccn3Cc2ccccc2)cc1 [Compound 15, (Z)-4-(1-benzyl-9-oxo-1H-benzo[f]indol-4(9H)-ylideneamino)-N-[2-(diethylamino)ethyl]benzamide] | 82% | 31% | 120% | IC50 (MCF7 (breast)): 4.98 ± 0.15 µM; IC50 (NCI-H460 (lung)): 3.16 ± 0.13 µM; IC50 (SF-268 (CNS)): 27.4 ± 0.39 µM; IC50 (Detroit 551): 7.68 ± 0.58 µM; Cytotoxicity in human neutrophils (LDH release) (human neutrophils; 3, 10 and 30 μM): showed cytotoxicity effects |

— paper PMC4394546, “Discovery of Benzo[f]indole-4,9-dione Derivatives as New Types of Anti-Inflammatory Agents” (International Journal of Molecular Sciences, 2015)
